The record followed here is patent US20210113540A1, “TREATMENT AGENT AND PHARMACEUTICAL COMPOSITION FOR GLIOMA” (NATIONAL UNIVERSITY CORPORATION HOKKAIDO UNIVERSITY, priority 2018, published 2021).

Usually IC50 stands for the midpoint of a concentration-inhibition curve.

One data set has as its system GICs. Kind of data set: Neutralization of GIC-damaging activity by addition of UDP-GlcNAc. The note with it: UDP-GlcNAc added after the chemical, FIG. 4. In kind it is cell-based, human. The procedure:
When UDP-GlcNAc was added after the chemical was added to GIC, reduced SOX2 expression in GICs and the cytotoxic activity of Compound 8 on GICs were neutralized (FIGS. 3 and 4). SOX2 K75A in which lysine 75 involved in the binding of CRM1 and SOX2 was substituted with alanine and SOX2 S248A in which the 0-GlcNAcylation target serine 248 was substituted with alanine were prepared, thereby establishing GICs that constitutively express these SOX2 mutants and wild-type SOX2 (SOX2 wt). After treatment with Compound 8, the localization of SOX2 was examined by immunostaining using an anti-FLAG antibody, and the viability of GICs expressing these mutants was examined by MTT assay (FIG. 5). In the presence of Compound 8, SOX2 K75A was present in the nucleus and partially neutralized the cytotoxic activity of Compound 8. SOX2 S248A was not retained in the nucleus by treatment with Compound 8, and no inhibitory effect on cytotoxic activity was observed. […] The SOX2/DAPI positive rate was as follows: GIC (E6): Control: 0%, SOX2 wt: 36±5%, SOX2 K75A: 63±5%, SOX2 S248A: 18±2%; GIC (E16): Control: 0%, SOX2 wt: 22±4%, SOX2 K75A: 58±6%, SOX2 S248A: 15±3%. Error bar: ±SD. Statistical processing is t-test. *P<0.05, **P<0.01, ***P<0.001. GIC was cultured for 2 days with Compound 8 (10 μmol/L) alone or together with UDP-GlcNAc (1 mmol/L), and immunostaining was performed for SOX2 and NESTIN. […]

Data set [1] relates to Glioma-initiating cell E6. The experiment in a line: Cell proliferation test (MTT) on GIC strain E6. The data set is classed as cell-based. The following applies: Homo sapiens, 72 h, MTT after 3 days. The procedure: (§1) GIC and GICR strain: Cell growth test was performed using E6, E6R, E16, and E16R (Stem Cells. 2016 August; 34(8): 2016-25.).
(§2) Cell culture solutions were obtained by mixing a medium prepared by adding various compounds, bFGF (Peprotech, 100-18B) and EGF (Peprotech, 100-15) to DMEM/Ham's F-12 medium (SIGMA, D8062) and a medium prepared by adding FCS (Hyclone, SH30910.03) to DMEM medium (Nacalai tesque, 08458-45) to a concentration of 10% for use.
(§3) Each compound adjusted to a predetermined concentration was dispensed into a 96-well plate (Falcon, 353072) at 80 μL/well, and E6 cells and E6R cells were seeded on the 96-well plate at 1000 cells/80 μL/well. After 3 days, 10 μL of an MTT reagent (DOJINDO, 341-01823) was added, the cells were incubated at 37° C. for 3 hours, the culture solution was removed, and 100 μL of DMSO was added. The absorbance at 570 nm was measured using Bio-Rad iMark (Bio-Rad, 168-1130JA). The growth inhibition rate at each test compound concentration was calculated by the following formula using the absorbance as an index of the viable cell count.
(§4) The growth inhibition rate at each compound concentration was determined, and the 50% growth inhibition concentration GI50 (μmol/L)] was calculated using XLfit. Growth inhibition rate (%)=(Amount of luminescence from wells supplemented with test compound)/(Amount of luminescence from wells supplemented with DMSO)×100

Data set [2] has as its system Glioma-initiating cell E16R. The experiment in a line: Cell proliferation test (MTT) on GICR strain E16R. The data set is classed as cell-based. The note with it: Homo sapiens, 72 h, MTT after 3 days. As to the method:
as §1, §2, §3, §4

Another data set relates to GICs (E6, E16). The experiment in a line: Quantitative determination of metabolites by LC-MS/MS in GICs. In kind it is cell-based, human. Also on record: amounts of purine metabolites (ATP, GTP, dATP, dGTP): dose or concentration left out as unconfirmed. The following applies: 24 hours. As to the method:
Compound 8 was added to GICs (E6, E16) at […] and treated for 24 hours. Cells were washed with a 5% mannitol solution, 70% ice-cold methanol was added, and metabolites were extracted. […] In addition, the amount of orotic acid was decreased in E16 cells.

The target in a further data set is T1, recombinant human DHODH (Homo sapiens, UniProt Q02127).
T1 construct: DHODH, 31-395aa, Human, His tag, E. coli, ATGP1615; His tag; purchased ATGen ATGP1615; host or cells: E. coli
T1 sequence (Q02127 31-395): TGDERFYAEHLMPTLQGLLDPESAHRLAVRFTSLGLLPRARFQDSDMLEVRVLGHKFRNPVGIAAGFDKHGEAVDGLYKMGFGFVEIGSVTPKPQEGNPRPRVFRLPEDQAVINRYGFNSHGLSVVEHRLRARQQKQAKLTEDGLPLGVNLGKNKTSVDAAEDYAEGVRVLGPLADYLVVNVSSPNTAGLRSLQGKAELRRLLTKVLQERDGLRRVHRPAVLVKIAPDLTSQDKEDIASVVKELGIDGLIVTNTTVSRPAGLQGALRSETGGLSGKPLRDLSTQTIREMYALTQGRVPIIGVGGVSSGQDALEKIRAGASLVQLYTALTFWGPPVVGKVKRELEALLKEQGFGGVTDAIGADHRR
The experiment in a line: DHODH enzyme assay (DCIP quenching). The following applies: pH 8.0, DCIP absorbance 600 nm, 50 minutes; read-out: DHODH enzyme inhibition IC50. In kind it is biochemical. As to the method:
For DHODH enzyme assay, “Benjamin Bader, Wolfgang Knecht, Markus Fries, and Monika Löffler. Expression, Purification, and Characterization of Histidine-Tagged Rat and Human Flavoenzyme Dihydroorotate Dehydrogenase. Protein Expression and Purification, 1998, 13, 414-422” was referred to.
DHODH activity was evaluated using an enzyme assay system that couples with an assay in a blue-coloring dye 2,6-dichlorophenol indophenol (DCIP, MP BIOMEDICALS, MP150118) quenching assay. Purified recombinant human DHODH (DHODH, 31-395aa, Human, His tag, E. coli, ATGP1615) was purchased from ATGen. […] Enzyme activity was assessed by measuring the decrease in DCIP absorbance (600 nm) for 50 minutes using an Envision plate-reading spectrophotometer (PerkinElmer Co., Ltd.). […]
Enzyme reaction inhibition rate (%)=(Amount of luminescence from wells supplemented with test compound)/(Amount of luminescence from wells supplemented with DMSO)×100

The test system of data set [3] is Glioma-initiating cell E16. The experiment in a line: Cell proliferation test (MTT) on GIC strain E16. The data set is classed as cell-based. The following applies: Homo sapiens, 72 h, MTT after 3 days. The procedure: as §1, §2, §3, §4

Read-outs that look alike come from different tables or passages of the source.

As to `O=C(O)c1cc(C2CC2)cnc1Nc1ccc2c(ccn2-c2ccccc2)c1` [Compound 8, 5-cyclopropyl-2-((1-phenyl-1H-indole-5-yl)amino)nicotinic acid], the “cytotoxic activity of Compound 8 on GICs when UDP-GlcNAc was added” value in the data set on GICs is “neutralized”. The GI50 is less than 7 nmol/L in data set [1] (read-out: GI50 (nmol/L) of Glioma-initiating cell E6); less than 1000 nmol/L in data set [1] (read-out: GI50 class of Glioma-initiating cell E6); 490 nmol/L in data set [2] (read-out: GI50 (nmol/L) of Glioma-initiating cell E16R); less than 1000 nmol/L in data set [2] (read-out: GI50 class of Glioma-initiating cell E16R); 434 nmol/L in data set [3] (read-out: GI50 (nmol/L) of Glioma-initiating cell E16); less than 1000 nmol/L in data set [3] (read-out: GI50 class of Glioma-initiating cell E16). In addition, the “amounts of pyrimidine metabolites downstream of orotic acid (UMP, UDP, UTP, CMP, CDP, CTP, dCTP, dTTP)” value in the data set on GICs (E6, E16) (10 M) is reported as “reduced”. Besides, the “amounts of purine metabolites (ATP, GTP, dATP, dGTP)” value in the data set on GICs (E6, E16) was “remained unchanged”. Moreover, at recombinant human DHODH, the IC50 came out at 8.96 nM.
